Patent publication US8828908B2, “Herbicidally active bicyclic 1,3-dione compounds” (Syngenta Limited, priority 2007, dated 2014)

Columns and labels:
Assay type in all cases: in vivo
Lolium perenne (LOLPE) [1] = experiment: Example B post-emergence herbicidal greenhouse test; conditions: 360 h, evaluated after 15 days, 100=total damage to plant, 0=no damage
Method: (§1) Seeds of a variety of test species were sown in standard soil in pots. After cultivation for one day (pre-emergence) or after 10 days cultivation (post-emergence) under controlled conditions in a glasshouse, the plants were sprayed with an aqueous spray solution derived from the formulation of the technical active ingredient in 0.6 ml acetone and 45 ml formulation solution containing 10.6% Emulsogen EL (Registry number 61791-12-6), 42.2% N-methylpyrrolidone, 42.2% dipropylene glycol monomethyl ether (Registry number 34590-94-8) and 0.2% X-77 (Registry number 11097-66-8). The test plants were then grown in a greenhouse under optimum conditions until, 15 days later for post-emergence and 20 days for pre-emergence, the test was evaluated (100=total damage to plant; 0=no damage to plant).
(§2) Alopecurus myosuroides (ALOMY), Avena fatua (AVEFA), Lolium perenne (LOLPE), Setaria faberi (SETFA), Digitaria sanguinalis (DIGSA), Echinochloa crus-galli (ECHCG)

Avena fatua (AVEFA) [2] = experiment: as above; conditions: 360 h, evaluated after 15 days, 100=total damage to plant, 0=no damage
Method: as §1, §2

[3] = system: Digitaria sanguinalis (DIGSA); experiment: as above; conditions: 360 h, evaluated after 15 days, 100=total damage to plant, 0=no damage
Method: as §1, §2

[4] = system: Alopecurus myosuroides (ALOMY); experiment: as above; conditions: 360 h, evaluated after 15 days, 100=total damage to plant, 0=no damage
Method: as §1, §2

Setaria faberi (SETFA) [5] = experiment: as above; conditions: 360 h, evaluated after 15 days, 100=total damage to plant, 0=no damage
Method: as §1, §2

[6] = system: Echinochloa crus-galli (ECHCG); experiment: as above; conditions: 360 h, evaluated after 15 days, 100=total damage to plant, 0=no damage
Method: as §1, §2

Lolium perenne (LOLPE) [7] = experiment: Example B pre-emergence herbicidal greenhouse test; conditions: 480 h, evaluated after 20 days, 100=total damage to plant, 0=no damage
Method: as §1, §2

Avena fatua (AVEFA) [8] = experiment: Example B pre-emergence herbicidal greenhouse test; conditions: 480 h, evaluated after 20 days, 100=total damage to plant, 0=no damage
Method: as §1, §2

[9] = system: Digitaria sanguinalis (DIGSA); experiment: Example B pre-emergence herbicidal greenhouse test; conditions: 480 h, evaluated after 20 days, 100=total damage to plant, 0=no damage
Method: as §1, §2

[10] = system: Alopecurus myosuroides (ALOMY); experiment: Example B pre-emergence herbicidal greenhouse test; conditions: 480 h, evaluated after 20 days, 100=total damage to plant, 0=no damage
Method: as §1, §2

Setaria faberi (SETFA) [11] = experiment: Example B pre-emergence herbicidal greenhouse test; conditions: 480 h, evaluated after 20 days, 100=total damage to plant, 0=no damage
Method: as §1, §2

[12] = system: Echinochloa crus-galli (ECHCG); experiment: Example B pre-emergence herbicidal greenhouse test; conditions: 480 h, evaluated after 20 days, 100=total damage to plant, 0=no damage
Method: as §1, §2

Row | SMILES | pest or weed control at 125 g/ha (Lolium perenne (LOLPE) [1]) [%] | pest or weed control at 125 g/ha (Avena fatua (AVEFA) [2]) [%] | pest or weed control at 125 g/ha [3] [%] | pest or weed control at 125 g/ha [4] [%] | pest or weed control at 125 g/ha (Setaria faberi (SETFA) [5]) [%] | pest or weed control at 125 g/ha [6] [%] | pest or weed control at 250 g/ha (Lolium perenne (LOLPE) [7]) [%] | pest or weed control at 250 g/ha (Avena fatua (AVEFA) [8]) [%] | pest or weed control at 250 g/ha [9] [%] | pest or weed control at 250 g/ha [10] [%] | pest or weed control at 250 g/ha (Setaria faberi (SETFA) [11]) [%] | pest or weed control at 250 g/ha [12] [%]
1 | Cc1ccc(-c2cccc(Cl)c2)cc1C1=C(O)[C@H]2CC[C@H](C2)C1=O (single isomer, unassigned) [Compound T7] | 0 | 0 | 0 | 0 | 0 | 0 | 0 | 10 | 20 | 0 | 10 | 0
2 | Cc1ccc(-c2ccc(Cl)c(C(F)(F)F)c2)cc1C1=C(O)[C@H]2CC[C@H](C2)C1=O (single isomer, unassigned) [Compound T8] | 0 | 0 | 30 | 10 | 30 | 0 | 50 | 30 | 70 | 50 | 70 | 100
3 | Cc1ccc(-c2ccc(Cl)c(Cl)c2)cc1C1=C(O)[C@H]2CC[C@H](C2)C1=O (single isomer, unassigned) [Compound T10] | 20 | 10 | 0 | 10 | 0 | 0 | 20 | 0 | 30 | 50 | 80 | 50
4 | COc1cc(Cl)ccc1-c1ccc(C)c(C2=C(O)[C@H]3CC[C@H](C3)C2=O)c1 (single isomer, unassigned) [Compound T11] | 0 | 20 | 0 | 20 | 10 | 20 | 10 | 0 | 0 | 10 | 10 | 10
5 | Cc1ccc(-c2ccc(Cl)cc2Cl)cc1C1=C(O)[C@H]2CC[C@H](C2)C1=O (single isomer, unassigned) [Compound T12] | 0 | 10 | 60 | 0 | 80 | 70 | 70 | 40 | 100 | 30 | 60 | 40
6 | Cc1ccc(-c2ccc(Cl)c(C#N)c2)cc1C1=C(O)[C@H]2CC[C@H](C2)C1=O (single isomer, unassigned) [Compound T25] | 0 | 0 | 80 | 20 | 30 | 0 | 20 | 0 | 80 | 0 | 80 | 50
7 | Cc1ccc(-c2ccc(Cl)cc2C)cc1C1=C(O)[C@H]2CC[C@H](C2)C1=O (single isomer, unassigned) [Compound T26] | 10 | 0 | 10 | 20 | 60 | 60 | 20 | 0 | 0 | 0 | 50 | 30
